Results taken from the Kinase Knowledgebase extract (Sharma et al. 2016).

Target: EGFR (UniProt P00533)
Sequence (P00533 whole entry, looked up): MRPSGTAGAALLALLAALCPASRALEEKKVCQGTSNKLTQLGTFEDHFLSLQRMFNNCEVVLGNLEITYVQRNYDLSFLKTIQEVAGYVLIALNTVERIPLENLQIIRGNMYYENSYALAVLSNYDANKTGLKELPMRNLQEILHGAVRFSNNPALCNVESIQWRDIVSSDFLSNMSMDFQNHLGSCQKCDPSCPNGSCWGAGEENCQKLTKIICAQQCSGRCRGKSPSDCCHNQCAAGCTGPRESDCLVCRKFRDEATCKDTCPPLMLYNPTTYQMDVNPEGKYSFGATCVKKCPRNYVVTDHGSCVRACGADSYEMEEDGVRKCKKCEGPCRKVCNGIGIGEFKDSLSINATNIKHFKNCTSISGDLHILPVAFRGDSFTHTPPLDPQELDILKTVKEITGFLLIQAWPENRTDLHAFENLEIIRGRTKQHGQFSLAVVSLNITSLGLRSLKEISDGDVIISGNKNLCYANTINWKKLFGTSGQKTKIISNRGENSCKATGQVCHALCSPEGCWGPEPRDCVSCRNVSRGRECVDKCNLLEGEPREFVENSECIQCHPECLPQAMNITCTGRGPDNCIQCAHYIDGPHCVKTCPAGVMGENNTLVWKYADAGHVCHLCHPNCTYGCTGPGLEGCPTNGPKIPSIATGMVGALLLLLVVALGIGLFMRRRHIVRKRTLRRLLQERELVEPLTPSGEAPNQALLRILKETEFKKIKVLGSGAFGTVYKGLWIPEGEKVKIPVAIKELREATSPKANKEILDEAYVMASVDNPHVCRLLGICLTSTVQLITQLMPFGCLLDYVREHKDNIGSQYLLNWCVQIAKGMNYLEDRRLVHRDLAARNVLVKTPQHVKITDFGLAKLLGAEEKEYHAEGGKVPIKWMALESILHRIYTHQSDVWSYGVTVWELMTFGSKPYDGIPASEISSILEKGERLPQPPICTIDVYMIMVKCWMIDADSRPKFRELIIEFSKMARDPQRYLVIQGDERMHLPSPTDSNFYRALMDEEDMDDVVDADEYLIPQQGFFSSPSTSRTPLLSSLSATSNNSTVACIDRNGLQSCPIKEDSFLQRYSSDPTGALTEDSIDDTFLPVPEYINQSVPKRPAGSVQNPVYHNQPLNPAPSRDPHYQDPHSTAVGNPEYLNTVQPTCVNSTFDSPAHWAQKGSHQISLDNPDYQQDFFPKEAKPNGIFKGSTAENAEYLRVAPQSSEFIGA

Compound	inhibition
N[C@@H](Cc1cc(O)c(O)c(Sc2nc3ccccc3[nH]2)c1)C(=O)O	11.7
NCCc1cc(O)c(O)c(Sc2nc3ccccc3[nH]2)c1	15.1
NCCc1cc(O)c(O)c(SC[C@H](N)C(=O)N[C@@H](CCC(=O)O)C(=O)O)c1	9.3
NCCC(=O)N[C@@H](Cc1cc(O)c(O)c(SC[C@H](N)C(=O)N[C@@H](CCC(=O)O)C(=O)O)c1)C(=O)O	0
NCCc1cc(O)c(O)c(Sc2nc[nH]n2)c1	15.9
NCCC(=O)NCCc1cc(O)c(O)c(SC[C@H](N)C(=O)N[C@@H](CCC(=O)O)C(=O)O)c1	52.1
N[C@@H](Cc1cc(O)c(O)c(Sc2nc[nH]n2)c1)C(=O)O	17
NCCC(=O)NCCc1cc(O)c(O)c(SC[C@H](N)C(=O)O)c1	12.1
NCCc1cc(O)c(O)c(SC[C@H](N)C(=O)O)c1	16.3
N[C@@H](Cc1cc(O)c(O)c(SC[C@H](N)C(=O)NCC(=O)O)c1)C(=O)O	2.5
NCCC(=O)N[C@@H](Cc1cc(O)c(O)c(SC[C@H](NC(=O)CC[C@H](N)C(=O)O)C(=O)NCC(=O)O)c1)C(=O)O	2.2
NCCc1cc(O)c(O)c(SC[C@H](N)C(=O)NCC(=O)O)c1	19.6

Other lines, results leading:

inhibition	Compound
7.9	NCCC(=O)NCCc1cc(O)c(O)c(SC[C@H](N)C(=O)NCC(=O)O)c1
4.9	NCCC(=O)NCCc1cc(O)c(O)c(SC[C@H](NC(=O)CC[C@H](N)C(=O)O)C(=O)NCC(=O)O)c1
2.9	N[C@@H](CSc1cc(C[C@H](N)C(=O)O)cc(O)c1O)C(=O)O
0	NCCC(=O)N[C@@H](Cc1cc(O)c(O)c(SC[C@H](N)C(=O)NCC(=O)O)c1)C(=O)O
0	N[C@@H](Cc1cc(O)c(O)c(SC[C@H](N)C(=O)N[C@@H](CCC(=O)O)C(=O)O)c1)C(=O)O
